Data reported in patent US7514438B2, “Melanin concentrating hormone receptor antagonist” (Amgen, Inc., priority 2003, dated 2009).

Key:
[1] = molecular target: T1, human MCH 1 receptor (hMCH1R) (Homo sapiens, UniProt Q99705); test: 125I-MCH ligand binding assay, hMCH; conditions: HEK 293 membranes, 0.2 nM 125I native-MCH; 100 μM or less list; read-out: IC50 in the hMCH binding assay
T1 construct: expressed in transfected cells; host or cells: HEK 293 (membranes)
Procedure: (§1) Human embryonic kidney cells (293 total) expressing either human, rat, or mouse MCH receptor were harvested from 150 mm culture dishes using PBS. Spinning at 1500 rpm for 2 minutes initially pelleted cells. The resulting pellet was then homogenized in 15 mL ice cold sucrose buffer (25 mM HEPES, 0.3 M sucrose, pH 7.4) with a motorized, glass fitted, Teflon® homogenizer. The homogenate was centrifuged at 48,000×g at 4° C. for 10 minutes, resuspended in 15 mL assay buffer (25 mM HEPES, 10 mM mgCl2, 0.2% BSA, 0.1 mg/mL STI, 0.1 mg/mL Pefabloc®, 1 μM Phosphoramidon, pH 7.4) with a Tissue-Tearor® (Biospec Products) and centrifuged again at 48,000×g for 10 minutes. The pellet was homogenized for a third time in 15 mL assay buffer using the Tissue-Tearor® and again centrifuged at 48,000×g for 10 minutes. The resulting pellet was resuspended in assay buffer at a wet weight concentration of 10-20 mg/mL.
(§2) Binding assays were determined as described below using mouse, rat or human MCH 1 receptors (mMCH1R, rMCH1R, and hMCH1R, respectively) expressed in HEK 293; IC50 values were calculated.
(§3) Binding assays were performed in 96-well U-bottom plates. Membranes (100 μg tissue) were incubated at 30° C. for 90 minutes in assay buffer with various peptides in the presence of 0.2 nM ^125I native-MCH (Perkin-Elmer Life Sciences, Boston, Mass.) in 100 μL total volume. Non-specific binding was assessed in the presence of 1 μM cold native-MCH. The reaction was terminated by rapid filtration through Unfilter-96 GF/C glass fiber filter plates (FilterMate® 196 Harvester, Packard Instrument Co., Meriden, Conn.) pre-soaked in PBS/0.5% BSA, followed by three washes with 300 μL ice-cold water. Bound radioactivity was determined using a TopCount® microplate scintillation and luminescence counter (Packard Instrument Co., Meriden, Conn.). Nonlinear regression analyses of drug concentration curves were performed using GraphPad Prism® (GraphPad Software, Inc., San Diego, Calif.).

[2] = molecular target: T2, rat MCH 1 receptor (rMCH1R) (Rattus norvegicus, UniProt P97639); test: 125I-MCH ligand binding assay, rMCH; conditions: HEK 293 membranes, 0.2 nM 125I native-MCH; 100 μM or less list; read-out: IC50 in the rMCH binding assay
T2 construct: expressed in transfected cells; host or cells: HEK 293 (membranes)
T2 sequence (P97639 whole entry): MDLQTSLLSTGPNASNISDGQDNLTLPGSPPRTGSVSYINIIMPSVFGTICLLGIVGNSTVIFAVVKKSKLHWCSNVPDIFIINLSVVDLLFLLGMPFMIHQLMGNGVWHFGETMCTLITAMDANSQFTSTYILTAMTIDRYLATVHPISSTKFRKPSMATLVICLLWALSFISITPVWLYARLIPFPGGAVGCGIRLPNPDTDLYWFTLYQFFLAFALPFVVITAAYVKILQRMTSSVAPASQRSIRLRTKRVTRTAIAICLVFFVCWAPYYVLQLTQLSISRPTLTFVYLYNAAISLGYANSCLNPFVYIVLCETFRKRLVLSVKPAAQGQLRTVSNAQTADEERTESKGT
Procedure: as §1, §2, §3

T1 sequence (Q99705 whole entry): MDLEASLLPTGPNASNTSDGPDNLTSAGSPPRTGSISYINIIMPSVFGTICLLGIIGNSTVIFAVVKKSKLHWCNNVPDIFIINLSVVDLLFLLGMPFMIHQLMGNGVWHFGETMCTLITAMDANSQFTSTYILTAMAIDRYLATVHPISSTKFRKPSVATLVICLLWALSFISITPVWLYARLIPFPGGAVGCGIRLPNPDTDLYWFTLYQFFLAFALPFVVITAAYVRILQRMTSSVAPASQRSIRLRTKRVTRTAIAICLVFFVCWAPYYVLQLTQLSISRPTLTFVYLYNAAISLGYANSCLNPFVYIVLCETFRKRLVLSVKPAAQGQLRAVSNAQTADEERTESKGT

Row | Compound | IC50 [1] [µM] | IC50 [2] [µM]
1 | O=C1CCCN1CCCn1nnnc1[C@H](c1ccccc1)N1CCN(C/C=C/c2ccccc2)CC1 (racemic) [Compound 36, 1-[3-(5-{phenyl-[4-(3-phenylallyl)piperazin-1-yl]methyl}tetrazol-1-yl)propyl]pyrrolidin-2-one] | ≤ 100 | ≤ 100
2 | C(=C\c1ccccc1)/CN1CCN([C@@H](c2ccccc2)c2nnnn2-c2cccc3c2CCCC3)CC1 (racemic) [Compound 38, 1-(3-phenylallyl)-4-{phenyl-[1-(5,6,7,8-tetrahydronaphthalen-1-yl)-1H-tetrazol-5-yl]methyl}piperazine] | ≤ 100 | ≤ 100
3 | Clc1ccc(CCn2nnnc2[C@H](c2ccccc2)N2CCN(C/C=C/c3ccccc3)CC2)cc1 (racemic) [Compound 39, 1-({1-[2-(4-chlorophenyl)ethyl]-1H-tetrazol-5-yl}phenylmethyl)-4-(3-phenylallyl)piperazine] | ≤ 100 | ≤ 100
4 | C(=C\c1ccccc1)/CN1CCN([C@@H](c2ccccc2)c2nnnn2CCCN2CCOCC2)CC1 (racemic) [Compound 42] | ≤ 100 | –
5 | Cc1cccc(C)c1-n1nnnc1[C@H](c1cccc2ccccc12)N1CCN(C/C=C/c2ccccc2)CC1 (racemic) [Compound 46, 1-{[1-(2,6-dimethyiphenyl)-1H-tetrazol-5-yl]naphthalen-1-ylmethyl}-4-(3-phenylallyl)piperazine] | ≤ 100 | ≤ 100
6 | Cc1cccc(C)c1-n1nnnc1[C@H](c1ccc(/C=C/c2ccccc2)cc1)N1CCN(C/C=C/c2ccccc2)CC1 (racemic) [Compound 52, 1-[[1-(2,6-dimethylphenyl)-1H-tetrazol-5-yl]-(4-styrylphenyl)methyl]-4-(3-phenylallyl)piperazirie] | ≤ 100 | ≤ 100
7 | Cc1cccc(C)c1-n1nnnc1[C@H](c1ccc(F)cc1)N1CCN(C/C=C/c2ccccc2)CC1 (racemic) [Compound 58, 1-[[1-(2,6-dimethylphenyl)-1H-tetrazol-5-yl]-(4-fluorophenyl)methyl]-4-(3-phenylallyl)piperazine] | ≤ 100 | ≤ 100
8 | Cc1cccc(C)c1-n1nnnc1[C@H](c1ccc(C(F)(F)F)cc1)N1CCN(C/C=C/c2ccccc2)CC1 (racemic) [Compound 63, 1-[[1-(2,6-dimethylphenyl)-1H-tetrazol-5-yl]-(4-trifluoromethylphenyl)methyl]-4-(3-phenylallyl)piperazine] | ≤ 100 | ≤ 100
9 | Cc1cccc(C)c1-n1nnnc1[C@H](c1ccccc1OCc1ccccc1)N1CCN(C/C=C/c2ccccc2)CC1 (racemic) [Compound 66, 1-{(2-benzyloxyphenyl)-[1-(2,6-dimethylphenyl)-1H-tetrazol-5-yl]methyl}-4-(3-phenylallyl)piperazine] | ≤ 100 | –
10 | COc1ccccc1[C@@H](c1nnnn1-c1c(C)cccc1C)N1CCN(C/C=C/c2ccccc2)CC1 (racemic) [Compound 67, 1-[[1-(2,6-dimethylphenyl)-1H-tetrazol-5-yl]-(2-methoxyphenyl)methyl]-4-(3-phenylallyl)piperazine] | ≤ 100 | –
11 | Cc1cccc(C)c1-n1nnnc1[C@H](c1ccc(-c2cccc(C(F)(F)F)c2)o1)N1CCN(C/C=C/c2ccccc2)CC1 (racemic) [Compound 68, 1-{[1-(2,6-dimethylphenyl)-1H-tetrazol-5-yl]-[5-(3-trifluoromethylphenyl)furan-2-yl]methyl}-4-(3-phenylallyl)piperazine] | ≤ 100 | ≤ 100
12 | Cc1cccc(C)c1-n1nnnc1[C@H](COCc1ccccc1)N1CCN(C/C=C/c2ccccc2)CC1 (racemic) [Compound 69, 1-{2-benzyloxy-1-[1-(2,6-dimethylphenyl)-1H-tetrazol-5-yl]ethyl}-4-(3-phenylallyl)piperazine] | ≤ 100 | ≤ 100
13 | Cc1cccc(C)c1-n1nnnc1[C@H](COCCc1ccccc1)N1CCN(C/C=C/c2ccccc2)CC1 (racemic) [Compound 85, 1-{1-[1-(2,6-dimethylphenyl)-1H-tetrazol-5-yl]-2-phenethyloxyethyl}-4-(3-phenylallyl)piperazine] | ≤ 100 | –
14 | Cc1cccc(C)c1-n1nnnc1C1(N2CCN(C/C=C/c3ccccc3)CC2)CCN(Cc2ccccc2)CC1 [Compound 91, 1-{1-benzyl-4-[1-(2,6-dimethylphenyl)-1H-tetrazol-5-yl]piperidin-4-yl}-4-(3-phenylallyl)piperazine] | ≤ 100 | –

Next, values leading:

Row | IC50 [1] [µM] | IC50 [2] [µM] | Compound
15 | ≤ 100 | ≤ 100 | CC(C)(C)n1nnnc1[C@H](c1ccccc1)N1CCN(C/C=C/c2ccccc2)CC1 (racemic) [Compound 14, 1-[(1-tert-butyl-1H-tetrazol-s-yl)phenylmethyl]-4-(3-phenylallyl)piperazine]
16 | ≤ 100 | ≤ 100 | C(=C\c1ccccc1)/CN1CCN([C@@H](c2ccccc2)c2nnnn2Cc2ccccc2)CC1 (racemic) [Compound 15, 1-[(1-benzyl-1H-tetrazol-5-yl)phenylmethyl]-4-(3-phenylallyl)piperazine]
17 | ≤ 100 | – | COC(=O)Cn1nnnc1[C@H](c1ccccc1)N1CCN(C/C=C/c2ccccc2)CC1 (racemic) [Compound 16, (5-{phenyl-[4-(3-phenylallyl)piperazin-1-yl]methyl}tetrazol-1-yl)acetic acid methyl ester]
18 | ≤ 100 | – | CCCCn1nnnc1[C@H](c1ccccc1)N1CCN(C/C=C/c2ccccc2)CC1 (racemic) [Compound 17, 1-[(1-butyl-1H-tetrazol-5-yl)phenylmethyl]-4-(3-phenylallyl)piperazine]
19 | ≤ 100 | ≤ 100 | CC(C)n1nnnc1[C@H](c1ccccc1)N1CCN(C/C=C/c2ccccc2)CC1 (racemic) [Compound 19, 1-[(1-isopropyl-1H-tetrazol-5-yl)phenylmethyl]-4-(3-phenylallyl)piperazine]
20 | ≤ 100 | ≤ 100 | CCOC(=O)Cn1nnnc1[C@H](c1ccccc1)N1CCN(C/C=C/c2ccccc2)CC1 (racemic) [Compound 21]
21 | ≤ 100 | ≤ 100 | CC(C)(C)CC(C)(C)n1nnnc1[C@H](c1ccccc1)N1CCN(C/C=C/c2ccccc2)CC1 (racemic) [Compound 22, 1-(3-phenylallyl)-4-{phenyl-[1-(1,1,3,3-tetramethylbutyl)-1H-tetrazol-5-yl]methyl}piperazine]
22 | ≤ 100 | ≤ 100 | C(=C\c1ccccc1)/CN1CCN([C@@H](c2ccccc2)c2nnnn2CCc2c[nH]c3ccccc23)CC1 (racemic) [Compound 29, 3-[2-(5-{phenyl-[4-(3-phenylallyl)piperazin-1-yl]methyl}tetrazol-1-yl)ethyl]-1H-indole]
23 | ≤ 100 | ≤ 100 | Clc1ccc(Cn2nnnc2[C@H](c2ccccc2)N2CCN(C/C=C/c3ccccc3)CC2)cc1Cl (racemic) [Compound 30, 1-{[1-(3,4-dichlorobenzyl)-1H-tetrazol-5-yl]phenylmethyl}-4-(3-phenylallyl)piperazine]
24 | ≤ 100 | ≤ 100 | C(=C\c1ccccc1)/CN1CCN([C@@H](c2ccccc2)c2nnnn2CCc2ccccc2)CC1 (racemic) [Compound 35, 1-[(1-phenethyl-1H-tetrazol-5-yl)phenylmethyl]-4-(3-phenylallyl) piperazine]
